From PubChem BioAssay AID1918999 (Molecular Pharmacology Branch, DTP, NCI, 2023)
“And” between values parts separate entries of the source, which are not always exact repeats. Equal values may be shown once.

System: 556581-035-R-J1-PDC complex spheroid growth
Assay: Anticancer human tumor 556581-035-R-J1-PDC patient-derived ovarian carcinoma cell line growth inhibition [AhR]
Settings: for viability, T/C: stronger effect = lower value
Procedure, shortened: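 Complex tumor spheroids co-cultured with HUVEC and human MSC stroma; AhR antagonists tested in combination with standard-of-care and investigational agents. Top concentration at or near clinical Cmax (else 10 microM), half-log dilutions; growth expressed as percent test/control.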

[1] = curve of first compound, second compound 0.1 µM
[2] = curve of first compound, second compound 0.316 µM
[3] = curve of first compound, second compound 1 µM
[4] = curve of first compound, second compound 3.16 µM
[5] = curve of first compound, second compound 10 µM
[6] = second compound 0.1 µM, first compound 0.0316 µM
[7] = second compound 0.1 µM, first compound 0.1 µM
[8] = second compound 0.1 µM, first compound 0.316 µM
[9] = second compound 0.1 µM, first compound 1 µM
[10] = second compound 0.1 µM, first compound 3.16 µM
[11] = second compound 0.1 µM, first compound 10 µM
[12] = second compound 0.316 µM, first compound 0.0316 µM
[13] = second compound 0.316 µM, first compound 0.1 µM
[14] = second compound 0.316 µM, first compound 0.316 µM
[15] = second compound 0.316 µM, first compound 1 µM
[16] = second compound 0.316 µM, first compound 3.16 µM
[17] = second compound 0.316 µM, first compound 10 µM
[18] = second compound 1 µM, first compound 0.0316 µM
[19] = second compound 1 µM, first compound 0.1 µM
[20] = second compound 1 µM, first compound 0.316 µM
[21] = second compound 1 µM, first compound 1 µM
[22] = second compound 1 µM, first compound 3.16 µM
[23] = second compound 1 µM, first compound 10 µM
[24] = second compound 3.16 µM, first compound 0.0316 µM
[25] = second compound 3.16 µM, first compound 0.1 µM
[26] = second compound 3.16 µM, first compound 0.316 µM
[27] = second compound 3.16 µM, first compound 1 µM
[28] = second compound 3.16 µM, first compound 3.16 µM
[29] = second compound 3.16 µM, first compound 10 µM
[30] = second compound 10 µM, first compound 0.0316 µM
[31] = second compound 10 µM, first compound 0.1 µM
[32] = second compound 10 µM, first compound 0.316 µM
[33] = second compound 10 µM, first compound 1 µM
[34] = second compound 10 µM, first compound 3.16 µM
[35] = second compound 10 µM, first compound 10 µM
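Throughout, for viability, T/C: compound exposure lasted 7 days; 100% = DMSO vehicle control growth.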

`CCN(c1cc(-c2ccc(CN3CCOCC3)cc2)cc(C(=O)NCc2c(C)cc(C)[nH]c2=O)c1C)C1CCOCC1` + CC(CO)NC(=O)c1cc(-c2ccc(Cl)cc2)nn(-c2cnn(C)c2)c1=O was tested, and the IC50 [1] was greater than 3 µM, the IC50 [2] was greater than 3 µM and the IC50 [3] was greater than 3 µM. The IC50 [4] was greater than 3 µM, the IC50 [5] was greater than 3 µM and the viability, T/C (second compound 0.1 µM, first compound 0.00949 µM) was 103%. For the same compound, the viability, T/C (second compound 0.1 µM, first compound 0.03 µM) was 102%, the viability, T/C (second compound 0.1 µM, first compound 0.0949 µM) was 94.7% and the viability, T/C (second compound 0.1 µM, first compound 0.3 µM) was 94.7%. For the same compound, the viability, T/C (second compound 0.1 µM, first compound 0.949 µM) was 102%, the viability, T/C (second compound 0.1 µM, first compound 3 µM) was 91.8% and the viability, T/C (second compound 0.316 µM, first compound 0.00949 µM) was 102%. For the same compound, the viability, T/C (second compound 0.316 µM, first compound 0.03 µM) was 91.2%, the viability, T/C (second compound 0.316 µM, first compound 0.0949 µM) was 96.5% and the viability, T/C (second compound 0.316 µM, first compound 0.3 µM) was 92.2%. It also gave a viability, T/C (second compound 0.316 µM, first compound 0.949 µM) of 108%, a viability, T/C (second compound 0.316 µM, first compound 3 µM) of 91.8% and a viability, T/C (second compound 1 µM, first compound 0.00949 µM) of 106%. It also gave a viability, T/C (second compound 1 µM, first compound 0.03 µM) of 106%, a viability, T/C (second compound 1 µM, first compound 0.0949 µM) of 117% and a viability, T/C (second compound 1 µM, first compound 0.3 µM) of 105%. The viability, T/C (second compound 1 µM, first compound 0.949 µM) was 87.8%, the viability, T/C (second compound 1 µM, first compound 3 µM) was 106% and the viability, T/C (second compound 3.16 µM, first compound 0.00949 µM) was 106%. It also gave a viability, T/C (second compound 3.16 µM, first compound 0.03 µM) of 99.7%, a viability, T/C (second compound 3.16 µM, first compound 0.0949 µM) of 90.7% and a viability, T/C (second compound 3.16 µM, first compound 0.3 µM) of 95%. For the same compound, the viability, T/C (second compound 3.16 µM, first compound 0.949 µM) was 100%, the viability, T/C (second compound 3.16 µM, first compound 3 µM) was 87.9% and the viability, T/C (second compound 10 µM, first compound 0.00949 µM) was 94.9%. It also gave a viability, T/C (second compound 10 µM, first compound 0.03 µM) of 101%, a viability, T/C (second compound 10 µM, first compound 0.0949 µM) of 113% and a viability, T/C (second compound 10 µM, first compound 0.3 µM) of 94.6%. The viability, T/C (second compound 10 µM, first compound 0.949 µM) was 89.8% and the viability, T/C (second compound 10 µM, first compound 3 µM) was 94.8%.

With `COc1cc(C2c3cc4c(cc3C(OC3OC5COC(C)OC5C(O)C3O)C3COC(=O)C23)OCO4)cc(OC)c1O` (stereo not drawn) + CC(CO)NC(=O)c1cc(-c2ccc(Cl)cc2)nn(-c2cnn(C)c2)c1=O the IC50 [1] was greater than 10 µM, the IC50 [2] was 8.09 µM and the IC50 [3] was greater than 10 µM. It also gave an IC50 [4] of 6.63 µM, an IC50 [5] of 7.38 µM and a viability, T/C [6] of 111%. For the same compound, the viability, T/C [7] was 117%, the viability, T/C [8] was 80% and the viability, T/C [9] was 62.9%. The viability, T/C [10] was 66%, the viability, T/C [11] was 50.9% and the viability, T/C [12] was 95.4%. It also gave a viability, T/C [13] of 102%, a viability, T/C [14] of 85.6% and a viability, T/C [15] of 67.8%. For the same compound, the viability, T/C [16] was 72.8%, the viability, T/C [17] was 44.6% and the viability, T/C [18] was 109%. For the same compound, the viability, T/C [19] was 104%, the viability, T/C [20] was 81.9% and the viability, T/C [21] was 62.6%. The viability, T/C [22] was 60.5%, the viability, T/C [23] was 51.8% and the viability, T/C [24] was 103%. It also gave a viability, T/C [25] of 102%, a viability, T/C [26] of 80% and a viability, T/C [27] of 74.5%. It also gave a viability, T/C [28] of 59.9%, a viability, T/C [29] of 44.5% and a viability, T/C [30] of 105%. The viability, T/C [31] was 98.8%, the viability, T/C [32] was 81.7% and the viability, T/C [33] was 73.5%. It also gave a viability, T/C [34] of 59.7% and a viability, T/C [35] of 46.4%.

Compound `Nc1ccn(C2OC(CO)C(O)C2(F)F)c(=O)n1` (stereo not drawn) + Cc1ccccc1N=Nc1ccc(NC(=O)c2ccnn2C)c(C)c1 has an IC50 [1] of less than 0.0316 µM, an IC50 [2] of less than 0.0316 µM and an IC50 [3] of less than 0.0316 µM. For the same compound, the IC50 [4] was less than 0.0316 µM, the IC50 [5] was less than 0.0316 µM and the viability, T/C [6] was 35.5%. For the same compound, the viability, T/C [7] was 41.6%, the viability, T/C [8] was 38.4% and the viability, T/C [9] was 34.7%. The viability, T/C [10] was 35.5%, the viability, T/C [11] was 34% and the viability, T/C [12] was 31.9%. The viability, T/C [13] was 37.4%, the viability, T/C [14] was 38.4% and the viability, T/C [15] was 37.6%. The viability, T/C [16] was 35.4%, the viability, T/C [17] was 32.4% and the viability, T/C [18] was 38.3%. For the same compound, the viability, T/C [19] was 37.2%, the viability, T/C [20] was 41.1% and the viability, T/C [21] was 36.2%. It also gave a viability, T/C [22] of 33.9%, a viability, T/C [23] of 30% and a viability, T/C [24] of 36.1%. It also gave a viability, T/C [25] of 36.9%, a viability, T/C [26] of 37.6% and a viability, T/C [27] of 37.7%. For the same compound, the viability, T/C [28] was 37.1%, the viability, T/C [29] was 29% and the viability, T/C [30] was 38%. It also gave a viability, T/C [31] of 42.6%, a viability, T/C [32] of 40.9% and a viability, T/C [33] of 39.7%. The viability, T/C [34] was 37.7% and the viability, T/C [35] was 35.6%.

With `CC(C)c1c(-c2ccccc2)nc2c(C#N)c[nH]n2c1=O` the viability, T/C (compound 0.0316 µM) was 102% and 99.4% and 99.2%, the viability, T/C (compound 0.1 µM) was 105% and 102% and 98.3% and the viability, T/C (compound 0.316 µM) was 92.7% and 106% and 104%. For the same compound, the viability, T/C (compound 1 µM) was 101% and 106% and 99%, the viability, T/C (compound 3.16 µM) was 95.7% and 110% and 93.8% and the viability, T/C (compound 10 µM) was 86.8% and 94.4% and 83.1%. It also gave an IC50 (curve of compound) greater than 10 µM.

In the case of `Cn1ncnc1C1c2n[nH]c(=O)c3cc(F)cc(c23)NC1c1ccc(F)cc1` (stereo not drawn), the viability, T/C (compound 0.000316 µM) is reported as 108% and 106% and 107%, the viability, T/C (compound 0.001 µM) is reported as 103% and 101% and 102% and the viability, T/C (compound 0.00316 µM) is reported as 101% and 93.3% and 98.7%. For the same compound, the viability, T/C (compound 0.01 µM) was 92.7% and 93.9% and 101%, the viability, T/C (compound 0.0316 µM) was 100% (2×) and 103% and the viability, T/C (compound 0.1 µM) was 94.4% and 98.2% and 94.7%. The IC50 (curve of compound) was greater than 0.1 µM.

For `O=C(C=Cn1cnc(-c2cc(C(F)(F)F)cc(C(F)(F)F)c2)n1)NNc1cnccn1`, the viability, T/C (compound 0.00949 µM) was 91.3% (2×) and 109%, the viability, T/C (compound 0.03 µM) was 104% and 93.8% and 98.7% and the viability, T/C (compound 0.0949 µM) was 89.4% and 85% and 83.4%. For the same compound, the viability, T/C (compound 0.3 µM) was 80.2% and 78.5% and 72.8%, the viability, T/C (compound 0.949 µM) was 65.8% and 77.7% and 69.5% and the viability, T/C (compound 3 µM) was 44.5% and 54% and 67.8%. The IC50 (curve of compound) was 2.22 µM and > 3 µM.

For `COc1ccc([C@@H](O)c2cc(-c3ncnc4cc(N5CCOCC5)ccc34)c(F)cc2Cl)nn1` + CC(CO)NC(=O)c1cc(-c2ccc(Cl)cc2)nn(-c2cnn(C)c2)c1=O, the IC50 [1] was 5.38 µM, the IC50 [2] was 6.65 µM and the IC50 [3] was 7.72 µM. For the same compound, the IC50 [4] was greater than 10 µM, the IC50 [5] was greater than 10 µM and the viability, T/C [6] was 98%. It also gave a viability, T/C [7] of 105%, a viability, T/C [8] of 92.9% and a viability, T/C [9] of 69.7%. It also gave a viability, T/C [10] of 61%, a viability, T/C [11] of 41% and a viability, T/C [12] of 110%. The viability, T/C [13] was 108%, the viability, T/C [14] was 99.9% and the viability, T/C [15] was 69.5%. For the same compound, the viability, T/C [16] was 58.7%, the viability, T/C [17] was 45% and the viability, T/C [18] was 104%. The viability, T/C [19] was 117%, the viability, T/C [20] was 108% and the viability, T/C [21] was 91.1%. It also gave a viability, T/C [22] of 61.9%, a viability, T/C [23] of 46.4% and a viability, T/C [24] of 113%. The viability, T/C [25] was 112%, the viability, T/C [26] was 105% and the viability, T/C [27] was 85.3%. For the same compound, the viability, T/C [28] was 64.3%, the viability, T/C [29] was 51.7% and the viability, T/C [30] was 113%. The viability, T/C [31] was 110%, the viability, T/C [32] was 109% and the viability, T/C [33] was 82%. For the same compound, the viability, T/C [34] was 62.4% and the viability, T/C [35] was 53.2%.

`CCc1c2c(nc3ccc(O)cc13)-c1cc3c(c(=O)n1C2)COC(=O)[C@]3(O)CC` was tested, and the viability, T/C (compound 0.000949 µM) was 89.1% and 96% and 90.5%, the viability, T/C (compound 0.003 µM) was 75% and 95% and 73.6% and the viability, T/C (compound 0.00949 µM) was 54.5% and 61% and 53.9%. For the same compound, the viability, T/C (compound 0.03 µM) was 39.9% and 46% and 40.5%, the viability, T/C (compound 0.0949 µM) was 17.3% and 25.3% and 22.7% and the viability, T/C (compound 0.3 µM) was 10.3% and 15.8% and 10.7%. For the same compound, the IC50 (curve of compound) was 0.0136 µM and 0.0213 µM and 0.0137 µM.
